Source: ChEMBL document CHEMBL5727850, “Haloallylamine indole and azaindole derivative inhibitors of lysyl oxidases and uses thereof” (2020)

Assay: Inhibition Assay: LOX and LOXL2: Lysyl oxidase (LOX) is an extracellular copper dependent enzyme which oxidizes peptidyl lysine and hydroxylysine residues in collagen and lysine residues in elastin to produce peptidyl alpha-aminoadipic-delta-semialdehydes. […] There are five LOX family members; these are LOX, LOXL1, LOXL2, LOXL3 and LOXL4. LOX and LOXL family members can be acquired as recombinant active proteins from commercial sources, or extracted from animal tissues like bovine aorta, tendons, pig skin; or prepared from cell cultures. The inhibitory effects of the compounds of the present invention were tested against the given LOX-LOXL preparation using a high-throughput coupled colorimetric method (Holt A. and Palcic M., A peroxidase-coupled continuous absorbance plate-reader assay for flavin monoamine oxidases, copper-containing amine oxidases and related enzymes. Nat. Protoc. 2006; 1: 2498-2505). The assay was developed using either 384 or 96 well format. Briefly, in a standard 384 well plate assay 25 μL of a dilution of any of the isoenzymes and orthologues in 1.2 M urea, 50 mM sodium borate buffer (pH 8.2) were added into each well in the presence of 1 μM mofegiline and 0.5 mM pargyline (to inhibit SSAO and MAO-B and MAO-A, respectively). […]

| SMILES | IC50 [nM] |
| --- | --- |
| Cc1c(-c2cccc(S(=O)(=O)N(C)C)c2)c2cc(C(=O)N(C)C)ccc2n1C/C(F)=C/CN | > 300 |
| Cc1c(-c2cccc(S(=O)(=O)N(C)C)c2)c2nc(C(=O)N(C)C)ccc2n1C/C(F)=C/CN | > 300 |
